Data published in US12679839B2, “Cyclin-dependent kinase 7 (CDK7) non-covalent inhibitors” (JANSSEN PHARMACEUTICA NV, priority 2020, dated 2026).

How the values were obtained:
[1] = molecular target: T1, CDK7/Cyclin H/MAT-1 complex (Homo sapiens, UniProt P50613); experiment: Absorbance kinetic assay (20 nM CDK7/Cyclin H/MAT-1 complex); assay type: biochemical; conditions: for IC50: read-out: CDK7 (20 nM) pIC50 (converted)
T1 construct: Human CDK7 (amino acids 1-346); His6 (N); TEV protease cleavage site (N); made in house; host or cells: baculovirus-SF9 insect cells
Description: Human CDK7 (amino acids 1-346) containing an N-terminal His6-tag followed by a tobacco etch virus (TEV) protease cleavage site, human MAT1 (amino acids 1-309) and human cyclin H (amino acids 1-323) were co-expressed in the baculovirus-SF9 insect cell expression system to generate a trimeric complex. Cell pellets were collected 72 h post-infection and were resuspended by Dounce homogenization in 20 mM Hepes-NaOH (pH 8.0), 300 mM NaCl, 10% glycerol, 2 mM dithiothreitol DTT), and 20 mM Imidazole supplemented with cOmplete™ Protease Inhibitor Cocktail (Roche) and 25 U/mL Benzonase® Nuclease HC according to the manufacturer's instructions. Cells were lysed by passing through a Microfluidics M110Y Microfluidizer 3 times at 600 kPa followed by centrifugation at 38,000×g at 4° C. for 1 hour. The supernatant was loaded onto a pre-equilibrated HisTrap HP column and eluted in 20 mM Hepes-NaOH (pH 8.0), 50 mM NaCl, 10% glycerol, 2 mM DTT, and 400 mM Imidazole. The eluate was further purified by gel filtration on a Superdex S200 16/60 column and eluted with 20 mM Hepes-NaOH (pH 7.5), 50 mM NaCl, 10% Glycerol, 2 mM DTT. Fractions containing a trimeric complex of CDK7, cyclin H, and MAT1 in a 1:1:1 ratio were pooled and concentrated to 3 mg/mL in a 10 kDa MWCO concentrator, and diluted to a final concentration of 1.6 mg/mL in 11.1 mM Hepes-NaOH (pH 8.0), 27.8 mM NaCl, 1.1 mM DTT and 50% glycerol. […]
Absorbance Kinetic Assay (20 nM CDK7/Cyclin H/MAT-1 Complex)
CDK7 complex catalyzes the ATP-dependent phosphorylation of a peptide substrate CDK7/9-tide that is derived from RNA Pol II to produce phosphorylated peptide and ADP. The kinase reaction product ADP was converted to lactate and NAD^+ in the presence of phosphoenol pyruvate (PEP), NADH and coupling enzymes lactate dehydrogenase (LDH) and pyruvate kinase (PK). CDK7 complex catalytic activity was measured by following the absorbance intensity continuously at 340 nm that corresponds with the depletion of NADH.
Absorbance at 340 nm was followed kinetically at an interval of 2 minutes for 8 hours.
The assay was carried out with 100 μl reaction volume per well in a 384-well plate that was pre-spotted nanoliter volume of compounds by LabCyte Echo 555. Compound dilution plates were made by 2-fold (could vary upon necessity) dilution in DMSO for 11 concentrations plus a DMSO control of uninhibited reaction. 2× substrate and coupling reagent mixture was added to the assay plate followed by an addition of an equal volume of 40 nM CDK7/Cyclin H/MAT-1 complex. After mixing, assay plates were spun at 2000 rpm for 3 minutes and then transferred to the plate reader for data collection.
For reversible inhibitors, the absorbance reaction progress curves were linear. The steady-state rate was derived from the slope of the linear curves. The following equation is applied to determine percent inhibition.
[formula] • νo=max rate (uninhibited rate) • νi=inhibited rate
The IC50 value is calculated by the following equation:
[formula] where νo is the rate in the absence of inhibitor, νmin is the rate at highest inhibitor concentration, and h is the Hill coefficient. Flint Assay (5 nM CDK7/Cyclin H/MAT-1 Complex)

[2] = tested on: RNA polymerase II Serine 5 phosphorylation (Rpb1 CTD), downstream substrate of CDK7; experiment: Imaging-based cellular RNA PolII Ser5 phosphorylation assay in A549 cells; assay type: cell-based, human; conditions: Homo sapiens, A549, 3 h, challenged with compound for 3 hours, read-out: pRNA polII Ser5 (A549) pIC50 (converted)
Description: Dosing curves were fitted using the following equation to obtain IC50: Y=Bottom+(Top−Bottom)/(1+10^((log IC50−X)*Hill slope)) where X=log10 of the compound concentration; top and bottom can be defined by PC and NC respectively. Imaging-Based Cellular RNA PolII Ser5 Phosphorylation Assay
To evaluate inhibition of CDK7 kinase activity, a 384-well automated imaging assay was used. This assay detects Serine 5 phosphorylation on a unique heptapeptide sequence in the C-terminal domain of Rpb1 subunit of RNA polymerase II, the downstream substrate of CDK7. This heptapeptide sequence is repeated up to 52 times in the CTD of Rpb1.
A549 adenocarcinoma human alveolar basal epithelial cells (ATCC, CCL-185), rabbit Phospho-Rpb1 CTD (Ser5) antibody (D9N51 (Cell Signaling Technology)), DMEM (Sigma), Fetal Bovine Serum (Biowest), L-glutamine (Sigma), Penicillin/Streptomycin (Life Technologies), Sodium Pyruvate (Sigma), Hepes (Sigma), poly-D-lysine coated μclear 384 black plates (Greiner), formaldehyde (PolySciences), D-PBS (Sigma), Methanol (Sigma), Alexa Fluor 488 goat anti rabbit IgG secondary antibody (Life Technologies), HCS CellMask™ Deep Red stain (Life Technologies), Hoechst 33258 (Invitrogen).
RNA Polymerase II Serine 5 phosphorylation was detected using a specific rabbit Phospho-Rpb1 CTD (Ser5) antibody. A549 adenocarcinoma human alveolar basal epithelial cells were seeded in 20 μl medium (DMEM supplemented with 1% Fetal Bovine Serum (heat inactivated 30′ 56° C.), 2 mM L-glutamine, 50 U/ml penicillin 50 μg/ml streptomycin, 1 mM sodium pyruvate and 50 mM hepes) at 1000 cells/well and cultured in poly-D-lysine coated μclear 384 black plates for 20 hours at 37° C. and 5% CO2.
After incubation cells were challenged with compound for 3 hours at 37° C. and 5% CO2. DMSO was used as high control and as low control 10 μM of LDC4297 reference compound was used. 40 nl of test compounds and controls were spotted in cell plates using Echo Liquid Handler (Echo 550, Labcyte). Incubation was followed by 20 minutes fixation with 20 μl 10% formaldehyde at room temperature. Medium/formaldehyde solution was removed, plates were washed 3 times with 30 μl D-PBS (w/o Ca^2+ and Ma^2+) and permeabilization was done by adding 20 μl ice cold methanol for 20 minutes. Cells were washed again 3 times with 30 μl D-PBS and 20 μl blocking buffer (25 ml fetal bovine serum in 500 ml D-PBS) was added for 1 hour.
After removing blocking buffer 20 μl 1/1000 primary antibody rabbit. Phospho-Rpb1 CTD (Ser5) antibody was added which binds to the phosphorylated Serine5 of the heptapeptide sequences in the CTD of Rpb1. Primary antibody was removed, and plates were washed 3 times with 30 μl D-PBS followed by addition of 20 μl 1/2000 Alexa Fluor 488 goat anti rabbit IgG secondary antibody for final detection of Phospho-Rpb1 CTD (Ser5) together with 1/5000 HCS CellMask™ Deep Red stain for membrane staining and 1/5000 Hoechst 33258 for nucleus staining. Last, plates were washed 2 times with 30 μl D-PBS and wells were filled with 40 μL D-PBS, plates were sealed (Thermowell sealing tape) and stored at 4° C. until reading. Plates were read with Opera Phenix (Perkin Elmer) with 10× air objective. Data were calculated and analyzed in Phaedra.
IC50 values were calculated using the following formula:
Average value of all HC's and all LC's are used for normalizations. % Effect=100−(sample−LC)/(HC−LC)×100% Control=(sample/HC)×100
A best-fit curve is fitted by a minimum sum of squares method to the plot of % Control vs. compound concentration. From this an IC50 value can be obtained. An estimate of the slope of the plot in terms of the Hill coefficient is also obtained.

T1 sequence (P50613 whole entry, the tested form may be a part): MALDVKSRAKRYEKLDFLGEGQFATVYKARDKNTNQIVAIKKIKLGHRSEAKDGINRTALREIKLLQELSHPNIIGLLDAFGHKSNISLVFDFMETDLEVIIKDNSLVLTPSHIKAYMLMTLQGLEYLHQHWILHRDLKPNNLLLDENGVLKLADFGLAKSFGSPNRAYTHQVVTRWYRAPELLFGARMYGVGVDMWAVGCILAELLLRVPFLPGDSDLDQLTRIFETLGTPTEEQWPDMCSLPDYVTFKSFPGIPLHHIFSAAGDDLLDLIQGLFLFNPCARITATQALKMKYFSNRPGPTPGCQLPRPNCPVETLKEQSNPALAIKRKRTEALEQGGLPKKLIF
T1 sequence (P51946 whole entry partner, the tested form may be a part): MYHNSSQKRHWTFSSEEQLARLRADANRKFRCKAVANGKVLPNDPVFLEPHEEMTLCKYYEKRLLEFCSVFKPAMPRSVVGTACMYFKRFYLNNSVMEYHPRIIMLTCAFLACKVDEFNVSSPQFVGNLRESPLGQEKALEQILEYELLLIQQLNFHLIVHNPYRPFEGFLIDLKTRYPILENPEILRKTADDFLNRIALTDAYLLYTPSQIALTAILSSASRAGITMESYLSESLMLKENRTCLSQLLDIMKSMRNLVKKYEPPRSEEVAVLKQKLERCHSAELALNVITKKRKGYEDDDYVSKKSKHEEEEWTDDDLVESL
T1 sequence (P51948 whole entry partner, the tested form may be a part): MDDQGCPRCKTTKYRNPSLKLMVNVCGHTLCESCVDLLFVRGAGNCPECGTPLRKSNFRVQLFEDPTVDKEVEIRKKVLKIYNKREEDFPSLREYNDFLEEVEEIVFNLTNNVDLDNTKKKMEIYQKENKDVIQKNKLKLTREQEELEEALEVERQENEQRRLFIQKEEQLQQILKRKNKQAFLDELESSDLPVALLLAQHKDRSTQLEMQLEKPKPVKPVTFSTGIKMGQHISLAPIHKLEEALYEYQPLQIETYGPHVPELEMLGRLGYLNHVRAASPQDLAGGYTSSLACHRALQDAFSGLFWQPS

Row | CDK7 (20 nM) pIC50 [1] | IC50 [2] | IC50 [1] | SMILES
1 | 6.59 | > 10000 nM | – | C[C@@H]1Cc2cnc(NCC(=O)N3CCCCC3)nc2CN1C(=O)[C@H]1CCN(C)C[C@@H]1c1ccccc1 [Compound 28]
2 | – | 1350 nM | 13.8 nM | CO[C@]1(C)CC[C@H](Nc2ncc3c(n2)CN(C(=O)[C@H]2CCN(C)C[C@@H]2c2ccccc2)[C@H](C)C3)CC1 [Compound 11]
3 | >8.01 | 141 nM | – | C[C@@H]1Cc2cnc(NC3CCC(F)(F)CC3)nc2CN1C(=O)[C@H]1CCN(C)C[C@@H]1c1ccccc1 [Compound 64]
4 | 7.38 | > 10000 nM | – | C[C@@H]1Cc2cnc(NCc3cn(C)cn3)nc2CN1C(=O)[C@H]1CCN(C)C[C@@H]1c1ccccc1 [Compound 63]
5 | – | 6310 nM | 120 nM | C[C@@H]1Cc2cnc(NC3CCOCC3)nc2CN1C(=O)[C@H]1CCN(C)C[C@@H]1C1CCOCC1 (relative stereo) [Compound 115]
6 | – | ~8130 nM | 35.5 nM | C[C@@H]1Cc2cnc(N[C@@H]3CCN(C)C(=O)C3)nc2CN1C(=O)[C@H]1CCN(C)C[C@@H]1c1ccccc1 (relative stereo) [Compound 4]
7 | – | 1230 nM | 12.9 nM | CO[C@H]1CC[C@H](Nc2ncc3c(n2)CN(C(=O)C2CCN(C)CC2c2ccnc(C)c2)[C@H](C)C3)CC1 (stereo partly shown) [Compound 104]
8 | 6.95 | – | – | CC(C)N1CC[C@H](C(=O)N2Cc3nc(NC4CCOCC4)ncc3C[C@H]2C)[C@@H](c2ccc(Cl)c(F)c2)C1 (single isomer, unassigned) [Compound 162]

The remaining lines, values behind:

Row | SMILES | CDK7 (20 nM) pIC50 [1] | IC50 [2] | IC50 [1]
9 | CC(C)N1CC[C@@H](C(=O)N2Cc3nc(NC4CCOCC4)ncc3C[C@H]2C)[C@H](c2ccc(Cl)c(F)c2)C1 (single isomer, unassigned) [Compound 165] | 6.10 | 3240 nM | –
10 | C[C@@H]1Cc2cnc(NCC3CCOC3)nc2CN1C(=O)[C@H]1CCN(C)C[C@@H]1c1ccccc1 (stereo partly shown) [Compound 26] | 7.85 | 302 nM | –
11 | C[C@@H]1Cc2cnc(NCc3ccccc3)nc2CN1C(=O)[C@H]1CCN(C)C[C@@H]1C(F)(F)F (relative stereo) [Compound 142] | – | 4170 nM | 2950 nM
12 | C[C@@H]1Cc2cnc(NC3CCOCC3)nc2CN1C(=O)[C@@H]1CCN(C)C[C@H]1c1ccncc1 (relative stereo) [Compound 116] | – | 1410 nM | 37.2 nM
13 | C[C@@H]1CN(C(=O)[C@H]2CCN(C)C[C@@H]2c2ccccc2)[C@@H](C)c2nc(NC3CCOCC3)ncc21 [Compound 180b] | 5.65 | 3890 nM | –
14 | CC[C@@H]1Cc2cnc(NC3CCOCC3)nc2CN1C(=O)[C@H]1CCN(C)C[C@@H]1c1ccccc1 (relative stereo) [Compound 185] | – | 724 nM | 42.7 nM
15 | C[C@@H]1Cc2cnc(NCc3c(F)cccc3F)nc2CN1C(=O)[C@H]1CCN(C)C[C@@H]1c1ccccc1 [Compound 32] | 7.9 | 372 nM | –
16 | CC(C)N1CC[C@@H](C(=O)N2Cc3nc(NC4CCOCC4)ncc3C[C@H]2C)[C@H](c2cccc(F)c2)C1 (single isomer, unassigned) [Compound 164] | 6.06 | 4070 nM | –
17 | C[C@@H]1Cc2cnc(N[C@H](C)c3ccccn3)nc2CN1C(=O)[C@H]1CCN(C)C[C@@H]1c1ccccc1 [Compound 21] | 7.97 | 302 nM | –
18 | Cc1ccc([C@H]2CN(C)CC[C@@H]2C(=O)N2Cc3nc(NC4CCOCC4)ncc3C[C@H]2C)cc1 (relative stereo) [Compound 118] | – | 269 nM | 11.7 nM
19 | CC(C)N1CC[C@H](C(=O)N2Cc3nc(NC4CCOCC4)ncc3C[C@H]2C)[C@@H](c2cccc(F)c2)C1 (single isomer, unassigned) [Compound 163] | 6.83 | 162 nM | –
20 | C[C@@H]1Cc2cnc(NC3CCOCC3)nc2[C@@H](C)N1C(=O)[C@H]1CCN(C)C[C@@H]1c1ccccc1 (single isomer, unassigned) [Compound 195a] | – | > 10000 nM | 4680 nM
21 | Cc1cccc([C@@H]2CN(C)CC[C@H]2C(=O)N2Cc3nc(NC4CCOCC4)ncc3C[C@H]2C)c1 (relative stereo) [Compound 137] | – | 955 nM | 457 nM
22 | CC[C@H]1Cc2cnc(NC3CCOCC3)nc2CN1C(=O)[C@H]1CCN(C)C[C@@H]1c1ccccc1 (relative stereo) [Compound 186] | – | > 10000 nM | > 10000 nM
23 | C[C@@H]1Cc2cnc(NC3CCN(S(=O)(=O)C4CC4)CC3)nc2CN1C(=O)[C@H]1CCN(C)C[C@@H]1c1ccccc1 [Compound 41] | 6.18 | > 10000 nM | –
24 | C[C@@H]1Cc2cnc(NC3CCOCC3)nc2CN1C(=O)[C@H]1CCN(C)C[C@@H]1c1cccc(Cl)c1 (relative stereo) [Compound 119] | – | ~39.8 nM | 72.4 nM
25 | C[C@@H]1c2nc(NC3CCOCC3)ncc2CCN1C(=O)[C@H]1CCN(C)C[C@@H]1c1ccccc1 (relative stereo) [Compound 183] | – | > 10000 nM | > 10000 nM
